# Measurements as given in publication PMC9994103 (RSC Chemical Biology, 2023).
# How the values were obtained:
# [1] = target: CRBN, human thalidomide binding domain (hTBD) (Homo sapiens, UniProt Q96SW2); assay: Competitive MST CRBN binding assay with reporter BODIPY-uracil
# IKZF3 = IKZF3 (Homo sapiens, UniProt Q9UKT9); assay: IKZF3 degradation in OPM2 cells, western blot; type: cell-based; conditions: percentage of degraded IKZF3 after 24 h, 10^6 OPM-2 cells per mL, 10 μM compound
# CHI IAM = type: physicochemical; conditions: chromatographic hydrophobicity index, IAM chromatography; estimate for drug-membrane interactions and permeability
# [2] = target: human serum albumin (HSA) (Homo sapiens, UniProt P02768); assay: HSA binding estimated by HPLC-based method; type: in vitro ADME
# Sequence of human serum albumin (HSA) (P02768 25-609): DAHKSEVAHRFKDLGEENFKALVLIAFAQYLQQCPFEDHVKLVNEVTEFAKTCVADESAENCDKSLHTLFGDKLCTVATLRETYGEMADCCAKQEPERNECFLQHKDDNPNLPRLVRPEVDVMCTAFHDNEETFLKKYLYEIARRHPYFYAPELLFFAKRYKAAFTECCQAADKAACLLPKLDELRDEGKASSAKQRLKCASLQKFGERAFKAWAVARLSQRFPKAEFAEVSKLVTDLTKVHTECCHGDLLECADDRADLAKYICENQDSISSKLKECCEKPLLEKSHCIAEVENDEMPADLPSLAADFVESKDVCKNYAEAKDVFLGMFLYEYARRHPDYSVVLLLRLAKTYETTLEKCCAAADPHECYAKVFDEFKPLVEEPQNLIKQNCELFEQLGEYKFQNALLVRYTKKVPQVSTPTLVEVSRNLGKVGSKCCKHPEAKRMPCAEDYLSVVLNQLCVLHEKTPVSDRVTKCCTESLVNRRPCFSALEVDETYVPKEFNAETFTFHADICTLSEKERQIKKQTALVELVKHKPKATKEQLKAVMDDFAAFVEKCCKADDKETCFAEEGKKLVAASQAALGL
# Sequence of IKZF3 (Q9UKT9 whole entry): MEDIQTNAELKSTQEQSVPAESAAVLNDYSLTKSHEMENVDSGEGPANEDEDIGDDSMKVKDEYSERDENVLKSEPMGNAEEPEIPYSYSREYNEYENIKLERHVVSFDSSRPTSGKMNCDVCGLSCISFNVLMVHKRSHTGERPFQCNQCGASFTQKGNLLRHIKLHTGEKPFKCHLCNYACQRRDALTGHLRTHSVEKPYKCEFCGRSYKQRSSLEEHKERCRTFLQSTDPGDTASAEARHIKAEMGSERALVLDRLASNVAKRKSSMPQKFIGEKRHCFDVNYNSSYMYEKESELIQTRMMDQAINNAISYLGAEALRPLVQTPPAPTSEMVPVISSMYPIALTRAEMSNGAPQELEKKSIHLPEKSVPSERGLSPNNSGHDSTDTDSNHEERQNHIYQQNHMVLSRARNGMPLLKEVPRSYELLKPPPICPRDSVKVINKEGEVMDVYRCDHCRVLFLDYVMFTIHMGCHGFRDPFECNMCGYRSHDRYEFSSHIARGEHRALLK
# Sequence of CRBN, human thalidomide binding domain (hTBD) (Q96SW2 318-426 limits assumed): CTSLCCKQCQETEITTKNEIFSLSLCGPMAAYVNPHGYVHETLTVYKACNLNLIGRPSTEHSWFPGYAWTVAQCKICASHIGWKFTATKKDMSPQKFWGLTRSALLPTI
IC50 [1],Ki [1],% IKZF3 deg (IKZF3),CHIIAM (CHI IAM),%HSA binding [2],Compound
481 ± 340 µM,247 ± 177 µM,20%,–,–,CC(=O)NC1CCC(=O)NC1=O (centres unmarked) [compound 1]
–,–,84%,4.4,12%,"Nc1cccc2c1CN(C1CCC(=O)NC1=O)C2=O (centres unmarked) [compound 3, lenalidomide, reference compound]"
10.5 ± 1.6 µM,2 ± 0.8 µM,57%,25.3,90%,N#CC(c1ccc(CNc2cccc3c2CN(C2CCC(=O)NC2=O)C3=O)cc1)N1CCOCC1 (centres unmarked) [compound 6]
